Target: T1, cellular PARG (Homo sapiens, UniProt Q86W56)
T1 construct: endogenous in cells; host or cells: HeLa
Test: Nuclear PAR accumulation assay (immunofluorescence high-content imaging, MMS-treated HeLa cells)
Assay type: cell-based
Conditions: 1 hour compound then MMS 50 μg/mL for an additional hour
How it was run: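 HeLa cells pretreated with compound for 1 h at 37° C, then given 50 μg/mL MMS for another hour. After methanol fixation, PAR was immunostained with DAPI nuclear counterstain; per-nucleus intensity and percent PAR-positive cells were imaged at 20× (≥1,000 cells/well). IC50 from four-parameter logistic fit.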

T1 sequence (Q86W56 whole entry): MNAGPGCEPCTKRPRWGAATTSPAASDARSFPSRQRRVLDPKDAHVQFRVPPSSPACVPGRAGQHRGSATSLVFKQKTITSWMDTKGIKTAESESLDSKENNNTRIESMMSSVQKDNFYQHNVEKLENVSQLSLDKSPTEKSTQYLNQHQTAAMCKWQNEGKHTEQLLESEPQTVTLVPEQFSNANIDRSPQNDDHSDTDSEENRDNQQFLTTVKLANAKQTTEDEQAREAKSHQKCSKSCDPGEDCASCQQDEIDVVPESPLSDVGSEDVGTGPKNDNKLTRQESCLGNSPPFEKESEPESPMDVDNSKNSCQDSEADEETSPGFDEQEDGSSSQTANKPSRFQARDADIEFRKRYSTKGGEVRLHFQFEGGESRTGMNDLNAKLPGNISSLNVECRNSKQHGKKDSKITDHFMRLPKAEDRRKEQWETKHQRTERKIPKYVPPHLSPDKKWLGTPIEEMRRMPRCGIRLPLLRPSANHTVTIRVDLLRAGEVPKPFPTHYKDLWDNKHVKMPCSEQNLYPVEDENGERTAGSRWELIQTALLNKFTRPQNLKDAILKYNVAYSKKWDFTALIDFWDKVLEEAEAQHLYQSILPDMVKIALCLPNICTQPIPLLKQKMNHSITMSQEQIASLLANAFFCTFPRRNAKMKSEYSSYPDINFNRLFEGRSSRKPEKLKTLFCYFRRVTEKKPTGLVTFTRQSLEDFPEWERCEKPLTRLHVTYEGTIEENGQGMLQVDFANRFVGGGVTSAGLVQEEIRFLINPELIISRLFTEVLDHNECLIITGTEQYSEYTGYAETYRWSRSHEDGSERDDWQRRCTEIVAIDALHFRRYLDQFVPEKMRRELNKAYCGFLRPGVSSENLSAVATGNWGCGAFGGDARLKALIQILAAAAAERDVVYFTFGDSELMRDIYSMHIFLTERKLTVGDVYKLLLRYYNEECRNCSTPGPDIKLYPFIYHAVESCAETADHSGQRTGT

Compound | IC50
C[C@@H]1CN=C2N(Cc3cccnc3C#N)C(=O)c3cc(S(=O)(=O)NC4(C)CC4)c(F)cc3N21 [Example 223, (R)-4-((2-cyanopyridin-3-yl)methyl)-8-fluoro-1-methyl-N-(1-methylcyclopropyl)-5-oxo-1,2,4,5-tetrahydroimidazo[1,2-a]quinazoline-7-sulfonamide] | 0.1 to 1 µM
C[C@@H]1CN=C2N(Cc3cnn(C)c3)C(=O)c3cc(S(=O)(=O)NC4(C)CC4)cc(N4CCNCC4)c3N21 [Example 13, (R)-1-methyl-4-((1-methyl-1H-pyrazol-4-yl)methyl)-N-(1-methylcyclopropyl)-5-oxo-9-(piperazin-1-yl)-1,2,4,5-tetrahydroimidazo[1,2-a]quinazoline-7-sulfonamide] | 0.1 to 1 µM
Cn1cc(CN2C(=O)c3cc(S(=O)(=O)NC4(C)CC4)cc(Br)c3N3CC(C)(C)N=C23)cn1 [Example 3, 9-bromo-2,2-dimethyl-4-((1-methyl-1H-pyrazol-4-yl)methyl)-N-(1-methylcyclopropyl)-5-oxo-1,2,4,5-tetrahydroimidazo[1,2-a]quinazoline-7-sulfonamide] | 0.1 to 1 µM
[2H]C([2H])(c1cnn(C)c1)N1C(=O)c2cc(S(=O)(=O)NC3(C)CC3)ccc2N2C1=N[C@H]1CNC[C@H]12 [Example 106, (7aS,10aR)-6-((1-methyl-1H-pyrazol-4-yl)methyl-d2)-N-(1-methylcyclopropyl)-5-oxo-6,7a,8,9,10,10a-hexahydro-5H-pyrrolo[3′,4′:4,5]imidazo[1,2-a]quinazoline-3-sulfonamide] | 0.1 to 1 µM
CN1C(=O)c2cc(S(=O)(=O)NC3(C)CC3)ccc2N2C1=NCC2C#Cc1cnn2c1OCC1(COC1)C2 (centres unmarked) [Example 178, 1-((5′H,7′H-spiro[oxetane-3,6′-pyrazolo[5,1-b][1,3]oxazin]-3′-yl)ethynyl)-4-methyl-N-(1-methylcyclopropyl)-5-oxo-1,2,4,5-tetrahydroimidazo[1,2-a]quinazoline-7-sulfonamide] | 0.1 to 1 µM
CN1C(=O)c2cc(S(=O)(=O)NC3(C)CC3)ccc2N2C1=NC[C@H]2C#Cc1cn(C)nc1F [Example 120, (R)-1-((3-fluoro-1-methyl-1H-pyrazol-4-yl)ethynyl)-4-methyl-N-(1-methylcyclopropyl)-5-oxo-1,2,4,5-tetrahydroimidazo[1,2-a]quinazoline-7-sulfonamide] | < 0.1 µM
Cc1nn(C)cc1C#C[C@@H]1CN=C2N(CC3CC3)C(=O)c3cc(S(=O)(=O)NC4(C)CC4)ccc3N21 [Example 277, (R)-4-(cyclopropylmethyl)-1-((1,3-dimethyl-1H-pyrazol-4-yl)ethynyl)-N-(1-methylcyclopropyl)-5-oxo-1,2,4,5-tetrahydroimidazo[1,2-a]quinazoline-7-sulfonamide] | < 0.1 µM
Cn1cc(CN2C(=O)c3cc(S(=O)(=O)NC4(C)CC4)ccc3N3C2=NC[C@H]3/C=C/c2ccccc2)cn1 [Example 40, (R,E)-4-((1-methyl-1H-pyrazol-4-yl)methyl)-N-(1-methylcyclopropyl)-5-oxo-1-styryl-1,2,4,5-tetrahydroimidazo[1,2-a]quinazoline-7-sulfonamide] | < 0.1 µM
Cc1cc(C#C[C@@H]2CN=C3N(Cc4cnn(C)c4)C(=O)c4cc(S(=O)(=O)NC5(C)CC5)ccc4N32)sn1 [Example 194, (R)-4-((1-methyl-1H-pyrazol-4-yl)methyl)-N-(1-methylcyclopropyl)-1-((3-methylisothiazol-5-yl)ethynyl)-5-oxo-1,2,4,5-tetrahydroimidazo[1,2-a]quinazoline-7-sulfonamide] | < 0.1 µM
CN1C(=O)c2cc(S(=O)(=O)NC3(C)CC3)ccc2N2C1=NC[C@H]2C#Cc1ccnn1C [Example 185, (R)-4-methyl-1-((1-methyl-1H-pyrazol-5-yl)ethynyl)-N-(1-methylcyclopropyl)-5-oxo-1,2,4,5-tetrahydroimidazo[1,2-a]quinazoline-7-sulfonamide] | < 0.1 µM
C[C@@H]1CN=C2N(C)C(=O)c3cc(S(=O)(=O)NC4(C)CC4)cc(N4CCC5(CC4)COC5)c3N21 [Example 123, (R)-1,4-dimethyl-N-(1-methylcyclopropyl)-5-oxo-9-(2-oxa-7-azaspiro[3.5]nonan-7-yl)-1,2,4,5-tetrahydroimidazo[1,2-a]quinazoline-7-sulfonamide] | < 0.1 µM
Cn1cc(CN2C(=O)c3cc(S(=O)(=O)NC4(C)CC4)ccc3N3C2=NC[C@@H]3C2CCCC2)cn1 [Example 93, (S)-1-cyclopentyl-4-((1-methyl-1H-pyrazol-4-yl)methyl)-N-(1-methylcyclopropyl)-5-oxo-1,2,4,5-tetrahydroimidazo[1,2-a]quinazoline-7-sulfonamide] | 0.1 to 1 µM
CCN1C(=O)c2cc(S(=O)(=O)NC3(C)CC3)ccc2N2C1=NC[C@H]2C#Cc1cnn2c1OCC(NC)C2 (stereo partly drawn) [Example 205, (1R)-4-ethyl-1-((6-(methylamino)-6,7-dihydro-5H-pyrazolo[5,i-b][1,3]oxazin-3-yl)ethynyl)-N-(1-methylcyclopropyl)-5-oxo-1,2,4,5-tetrahydroimidazo[1,2-a]quinazoline-7-sulfonamide] | 0.1 to 1 µM
CCN1C(=O)c2cc(S(=O)(=O)NC3(C)CC3)ccc2N2C1=NC[C@H]2C#Cc1cc(CN(C)C)nn1C [Example 195, (R)-1-((3-((dimethylamino)methyl)-1-methyl-1H-pyrazol-5-yl)ethynyl)-4-ethyl-N-(1-methylcyclopropyl)-5-oxo-1,2,4,5-tetrahydroimidazo[1,2-a]quinazoline-7-sulfonamide] | < 0.1 µM
Cc1ccc2ncc(C#C[C@@H]3CN=C4N(C)C(=O)c5cc(S(=O)(=O)NC6(C)CC6)ccc5N43)n2n1 [Example 183, (R)-4-methyl-N-(1-methylcyclopropyl)-1-((6-methylimidazo[1,2-b]pyridazin-3-yl)ethynyl)-5-oxo-1,2,4,5-tetrahydroimidazo[1,2-a]quinazoline-7-sulfonamide] | < 0.1 µM

Continued, values first:

IC50 | Compound
< 0.1 µM | Cn1cc(CN2C(=O)c3cc(S(=O)(=O)NC4(C)CC4)ccc3N3C2=NC[C@H]3C#Cc2cccnc2)cn1 [Example 117, (R)-4-((1-methyl-1H-pyrazol-4-yl)methyl)-N-(1-methylcyclopropyl)-5-oxo-1-(pyridin-3-ylethynyl)-1,2,4,5-tetrahydroimidazo[1,2-a]quinazoline-7-sulfonamide]
< 0.1 µM | C#C[C@@H]1CN=C2N(Cc3cnn(C)c3)C(=O)c3cc(S(=O)(=O)NC4(C)CC4)cc(C4=CCN(C)CC4)c3N21 [Example 76, (R)-1-ethynyl-9-(1-methyl-1,2,3,6-tetrahydropyridin-4-yl)-4-((1-methyl-1H-pyrazol-4-yl)methyl)-N-(1-methylcyclopropyl)-5-oxo-1,2,4,5-tetrahydroimidazo[1,2-a]quinazoline-7-sulfonamide]
< 0.1 µM | CCN1C(=O)c2cc(S(=O)(=O)NC3(C)CC3)ccc2N2C1=NC[C@H]2C#Cc1cnc2cc(C#N)cnn12 [Example 206, (R)-1-((7-cyanoimidazo[1,2-b]pyridazin-3-yl)ethynyl)-4-ethyl-N-(1-methylcyclopropyl)-5-oxo-1,2,4,5-tetrahydroimidazo[1,2-a]quinazoline-7-sulfonamide]
< 0.1 µM | [2H]C([2H])(c1cnn(C)c1)N1C(=O)c2cc(S(=O)(=O)NC3(C)CC3)cc(Br)c2N2C1=NC[C@H]2C#CC1CC1 [Example 15, (R)-9-bromo-1-(cyclopropylethynyl)-4-((1-methyl-1H-pyrazol-4-yl)methyl-d2)-N-(1-methylcyclopropyl)-5-oxo-1,2,4,5-tetrahydroimidazo[1,2-a]quinazoline-7-sulfonamide]
< 0.1 µM | C[C@@H]1CN(c2cc(S(=O)(=O)NC3(C)CC3)cc3c2N2C(=NC[C@H]2C)N(Cc2cnn(C)c2)C3=O)C[C@@H](C)N1 [Example 88, (R)-9-((3R,5R)-3,5-dimethylpiperazin-1-yl)-1-methyl-4-((1-methyl-1H-pyrazol-4-yl)methyl)-N-(1-methylcyclopropyl)-5-oxo-1,2,4,5-tetrahydroimidazo[1,2-a]quinazoline-7-sulfonamide]
< 0.1 µM | Cn1cc(CN2C(=O)c3cc(S(=O)(=O)NC4(C)CC4)ccc3N3C2=NC[C@H]3COc2ccccc2)cn1 [Example 28, (S)-4-((1-methyl-1H-pyrazol-4-yl)methyl)-N-(1-methylcyclopropyl)-5-oxo-1-(phenoxymethyl)-1,2,4,5-tetrahydroimidazo[1,2-a]quinazoline-7-sulfonamide]
< 0.1 µM | CCC[C@@H]1CN=C2N(Cc3cnn(C)c3)C(=O)c3cc(S(=O)(=O)NC4(C)CC4)ccc3N21 [Example 122, (R)-4-((1-methyl-1H-pyrazol-4-yl)methyl)-N-(1-methylcyclopropyl)-5-oxo-1-propyl-1,2,4,5-tetrahydroimidazo[1,2-a]quinazoline-7-sulfonamide]
< 0.1 µM | CN1C(=O)c2cc(S(=O)(=O)NC3(C)CC3)ccc2N2C1=NCC2C#Cc1cnc2cc(C(F)(F)F)cnn12 (centres unmarked) [Example 209, 4-methyl-N-(1-methylcyclopropyl)-5-oxo-1-((7-(trifluoromethyl)imidazo[1,2-b]pyridazin-3-yl)ethynyl)-1,2,4,5-tetrahydroimidazo[1,2-a]quinazoline-7-sulfonamide]
< 0.1 µM | C#C[C@@H]1CN=C2N(Cc3cnc(C)o3)C(=O)c3cc(S(=O)(=O)NC4(C)CC4)ccc3N21 [Example 153, (R)-1-ethynyl-N-(1-methylcyclopropyl)-4-((2-methyloxazol-5-yl)methyl)-5-oxo-1,2,4,5-tetrahydroimidazo[1,2-a]quinazoline-7-sulfonamide]
< 0.1 µM | [2H]C([2H])(c1cnn(C)c1)N1C(=O)c2cc(S(=O)(=O)NC3(C)CC3)ccc2N2C1=NC[C@H]2C#C [Example 43, (R)-1-ethynyl-4-((1-methyl-1H-pyrazol-4-yl)methyl-d2)-N-(1-methylcyclopropyl)-5-oxo-1,2,4,5-tetrahydroimidazo[1,2-a]quinazoline-7-sulfonamide]
< 0.1 µM | CN1C(=O)c2cc(S(=O)(=O)NC3(C)CC3)ccc2N2C1=NCC2C#Cc1ccc2nnn(C)c2c1 (centres unmarked) [Example 172, 4-methyl-1-((1-methyl-1H-benzo[d][1,2,3]triazol-6-yl)ethynyl)-N-(1-methylcyclopropyl)-5-oxo-1,2,4,5-tetrahydroimidazo[1,2-a]quinazoline-7-sulfonamide]
